{"source": "patent US20090181098A1", "about": "“Hmg-Co-a Reductase Inhibitor Enhancement of Bone and Cartilage” (OsteoScreen IP, LLC, priority 2006, published 2009)", "key": {"osteocalcin": {"test_system": "osteocalcin", "assay": "Serum osteocalcin (sandwich ELISA) in OVX rats", "format": "in vivo, rat", "settings": "dermal gel 0.01 mg/kg/day for 5 days, day 26", "method": "Blood samples were obtained at the end of the five day treatment for determination of liver and muscle enzymes (alanine aminotransferase (ALT), aspartate aminotransferase (AST), alkaline phosphatase (AP), and lactic dehydrogenase (LDH) by radioimmunoassays (Esoterix, San Antonio, Tex.). Kinetic quantitative determination of […] (CPK) in serum was estimated using a kit from Stanbio Laboratory (Boerne, Tex.). The concentration of osteocalcin was measured using a sandwich ELISA assay supplied by from Biomedical Technologies Inc."}, "femur fracture model": {"test_system": "femur fracture model", "assay": "Femur fracture model, systemically delivered lovastatin (radiographs, biomechanics)", "format": "in vivo, rat"}, "rat femur": {"test_system": "rat femur", "assay": "Biomechanical testing of intact femurs (three point bending)", "format": "in vivo", "method": "Three month old rats were dosed with vehicle or transdermal lovastatin, 1 mg/kg/day for 5 days. Four weeks after dosing, rats were euthanized and femurs removed and stored frozen. Samples were thawed to room temperature on the day of testing, and remaining soft tissue was removed. To obtain mechanical properties, the femurs were subjected to three point bending with an EnduraTEC mechanical testing system (Elf 3300, Bose Corporation, Minnetonka, Minn.). Each rat femur was horizontally positioned on the support rollers (which were 12 mm apart) such that the vertical, rounded indenter loaded the femur with the medial side in front and the anterior side down (i.e., bending occurred about the medial-lateral axis). The force-displacement curve was recorded as the indenter traveled at rate of 3 mm/min into femur midshaft. Structural properties were obtained directly from the load deformation curves."}, "[1]": {"assay": "Plasma lovastatin by mass spectroscopy after local nanobeads", "format": "in vivo, rat", "settings": "any of the dosed groups, end of the experiment", "method": "Plasma was taken from the rats 3 hrs after the last dose and the lovastatin was measured by mass spectroscopy."}, "[2]": {"test_system": "ovariectomized (OVX) rats", "assay": "Effects of transdermal lovastatin on bone in ovariectomized rats (histomorphometry)", "format": "in vivo, rat", "method": "(§1) Following sacrifice, both femurs and tibiae were removed, cleaned of soft tissue, fixed in 10% formalin for 48 hours, and then stored in 70% ETOH and prepared for histology. Histomorphometric analysis was performed using a semiautomated Osteomeasure System (Osteometrics, Inc., Atlanta, Ga.) and digitizing pad and by following standard histomorphometric techniques. Bone volume, trabecular number, thickness and separation, cell number and dynamic parameters were determined as described previously by Parfitt et al. [Parfitt A M (1988) Bone histomorphometry: standardization of nomenclature, symbols and units. Summary of proposed system. J Bone Miner Res 4:1-5.]. Bone formation rates (BFR) and mineral apposition rates (MAR) were measured in plastic-embedded sections following demeclocycline and calcein injections (15 and 20 mg/kg/body weight respectively) given intraperitoneally at 10 and 4 days before sacrifice. Values for MAR were corrected for obliquity of the plane of section in cancellous bone. Rats were evaluated with a mouse densitometer, Piximus (GE Medical Systems); bone mineral density (BMD), calculated by dividing bone mineral content (g) by the projected bone area (cm^2), was assessed for the proximal third of the tibia at time 0 and at 5 weeks. Micro-computed tomography (μ-CT) analysis of the rat distal femur was kindly performed by Phil Salmon (Skyscan, Belgium). Bones were scanned using the Skyscan Model 1072 employing an x-ray tube voltage of 100 kV, and magnified to attain a pixel size of 10.13 μm. Data are expressed as the mean standard error (SEM). Statistical differences between groups were evaluated with one-way analysis of variance (ANOVA). […] P<0.05 were considered significant."}, "neonatal murine calvaria": {"test_system": "neonatal murine calvaria", "assay": "Neonatal murine calvarial explant culture, bone and cartilage formation", "format": "cell-based, mouse", "protocol": "Four day old calvarial explant cultures were incubated with media containing scaffold material that releases 0, 0.4 or 8 μg/day. The extent of new cartilage is then quantitated by imaging analysis.\nExperimental Design Four day old Swiss white pups were employed as they are generally a healthy mouse strain. Calvaria from 4-day old Swiss white mouse pup mice were dissected out and cut in half. The excised hemi-calvariae were placed on metal grids (at the surface) in 1 ml BGJ media with Fitton-Jackson modification BGJ media (Sigma) containing 0.1% BSA with glutamine. The bones are incubated at 37° C. in a 5% humidified incubator for a period of 24 h and then transferred to wells containing 1 ml media with test compounds and further incubated under the above conditions for 72-96 h. The bones are then removed, fixed in 10% buffered formalin for 24 h, decalcified in 14% EDTA overnight, embedded in paraffin and 4 μm-thick sections cut and stained with H&E.\nDosing. […] Calvaria are removed at day 7 and day 14. The media is changed every 3 days. Cartilage formation is assessed histologically."}, "intact rats": {"test_system": "intact rats", "assay": "Effects of transdermal lovastatin on bone in intact rats (BMD, histomorphometry, μCT)", "format": "in vivo, rat", "settings": "for Increase in bone volume, proximal tibial metaphysis: dermal, hydrophilic petrolatum, 4 weeks after treatment", "method": "as §1"}, "[3]": {"assay": "Plasma lovastatin by mass spectroscopy, fracture Experiment 2", "format": "in vivo", "settings": "rat, 3 hrs after the last dose, read-out: Plasma lovastatin level", "method": "Plasma was taken from the rats 3 hrs after the last dose and the lovastatin was measured by mass spectroscopy. […] Effective plasma levels from transdermal administration is on the order of 2-3 ng/ml."}, "[4]": {"settings": "transdermal 1 mg/kg/day for 5 days, femurs four weeks after dosing"}, "[5]": {"settings": "aqueous alkanolic gel, lowest dose tested"}, "[6]": {"settings": "transdermal 1 and 5 mg/kg/day for 5 days"}}, "note": "Like-named read-outs stand apart in the source and are kept apart here."}
{"smiles": "CC[C@H](C)C(=O)O[C@H]1C[C@@H](C)C=C2C=C[C@H](C)[C@H](CC[C@@H]3C[C@@H](O)CC(=O)O3)[C@H]21", "note": "[lovastatin]", "values": [{"measurement": "Serum osteocalcin levels", "setting": "osteocalcin", "value": "significant increase in osteocalcin levels"}, {"measurement": "Maximum force to break the bones, 2.5 mg/kg vs 1 mg/kg/day", "setting": "femur fracture model; Experiment 1, 5 day transdermal dose of 2.5 mg/kg, 6 weeks", "value": "lower maximum force than the 1 mg/kg/day dose"}, {"measurement": "Radiological evaluation of fracture repair", "setting": "femur fracture model; Experiment 1, oral 10 and 25 mg/kg, six weeks", "value": "no difference between the treated and the controls"}, {"measurement": "Radiographic score at 2 weeks", "setting": "femur fracture model; Experiment 1, oral 10 and 25 mg/kg/day", "value": "no difference from vehicle-treated controls"}, {"measurement": "Force required to break the bone", "setting": "femur fracture model; Experiment 1, oral 10 and 25 mg/kg/day, 6 weeks", "value": "no effect"}, {"measurement": "Radiographic score at 2 weeks", "setting": "femur fracture model; Experiment 1, transdermal 1 and 2.5 mg/kg/day", "value": "striking effect at both doses"}, {"measurement": "Force required to break the bone, greater than vehicle treated controls", "setting": "femur fracture model; Experiment 1, transdermal, 6 weeks", "value": 42, "unit": "%"}, {"measurement": "Radiological evaluation of fracture repair", "setting": "femur fracture model; Experiment 1, transdermal, week 6", "value": "complete healing by week 6"}, {"measurement": "Force required to break the bone, greater than vehicle-treated controls", "setting": "femur fracture model; Experiment 2, TD 0.1 mg/kg/day, 6 weeks", "value": 42, "unit": "%"}, {"measurement": "Maximum force to rebreak the bones", "setting": "femur fracture model; Experiment 2, TD doses higher than 0.1 mg/kg/day", "value": "reduced maximum force"}, {"measurement": "Force required to break the bone", "setting": "femur fracture model; Experiment 2, oral 5 mg/kg/day, 6 weeks", "value": "no effect"}, {"measurement": "Stiffness", "setting": "femur fracture model; Experiment 2, oral 5 mg/kg/day, 6 weeks after fracture", "value": "no effect"}, {"measurement": "Most effective transdermal dose", "setting": "femur fracture model; for 5 days", "value": 0.1, "unit": "mg/kg/day"}, {"measurement": "Stiffness", "setting": "femur fracture model; previous experiment (Experiment 1), oral, higher doses", "value": "increase in stiffness"}, {"measurement": "Fracture healing (radiographic examination and biomechanical loading)", "setting": "femur fracture model; transdermal", "value": "accelerates fracture healing"}, {"measurement": "Strength and stiffness of fractured bones", "setting": "femur fracture model; transdermal, even at 0.1 mg/kg/day for 5 days only", "value": "increase in both strength and stiffness"}, {"measurement": "Increase in bending strength of femurs vs control", "setting": "rat femur; dermal 1 mg/kg/day for 5 days", "value": 19, "unit": "%"}, {"measurement": "Bending strength", "setting": "rat femur; [4]", "value": "165.2 ± 3", "unit": "MPa"}, {"measurement": "Maximum force", "setting": "rat femur; [4]", "value": "141.7 ± 3.4", "unit": "N"}, {"measurement": "Modulus of elasticity", "setting": "rat femur; [4]", "value": "6379.9 ± 455.1", "unit": "MPa"}, {"measurement": "Stiffness", "setting": "rat femur; [4]", "value": "561.3 ± 29.5", "unit": "N/mm"}, {"measurement": "Plasma lovastatin", "setting": "[1]", "value": "undetectable"}, {"measurement": "Effective transdermal dose as fraction of the dose required orally for an effect on bone formation", "setting": "[2]; 0.01 mg/kg transdermal vs oral dose of Mundy et al. 1999", "value": "approximately 1/1000"}, {"measurement": "Bone formation rates", "setting": "[2]; 5 days of transdermal exposure, 0.01 mg/kg body weight", "value": "markedly increased"}, {"measurement": "Trabecular number", "setting": "[2]; [5]", "value": "significant increase in trabecular number"}, {"measurement": "Trabecular separation", "setting": "[2]; [5]", "value": "significant decrease in trabecular separation"}, {"measurement": "Increase in bone volume vs OVX rats treated with vehicle", "setting": "[2]; dermal 1 mg/kg/day, 5 days (FIG. 4)", "value": 50, "unit": "%"}, {"measurement": "Bone formation rates (BFR)", "setting": "[2]; dermal, 5 day administration (FIG. 6)", "value": "significant increase"}, {"measurement": "OVX-induced changes in trabecular thickness, number and separation", "setting": "[2]; dermal, 5 days (FIG. 5)", "value": "partly prevented these changes"}, {"measurement": "Bone volume by histomorphometry", "setting": "[2]; dermal, aqueous alkanolic gel, 0.01 to 0.5 mg/kg/day for 5 days, significant at 0.01 mg/kg/day", "value": "increased bone volume at all the doses tested"}, {"measurement": "Increase in bone volume vs vehicle-treated OVX rats", "setting": "[2]; dermal, hydroalcoholic gel, 0.01 to 0.5 mg/kg/day for 5 days, proximal tibiae, four weeks after dosing", "value": "> 40", "unit": "%"}, {"measurement": "Increase in bone volume vs vehicle-treated OVX rats", "setting": "[2]; dermal, hydrophilic petrolatum, 5 days, even at the lowest dose (FIG. 3b)", "value": "> 50", "unit": "%"}, {"measurement": "Cancellous bone connectivity (trabecular thickness, number, separation, star volume, fractal dimension, pattern factor)", "setting": "[2]; transdermal", "value": "increased cancellous bone connectivity"}, {"measurement": "Bone formation in cultures of neonatal murine calvaria", "setting": "neonatal murine calvaria; 7 days after exposure", "value": "stimulates bone formation"}, {"measurement": "Cartilage formation in cultures of neonatal murine calvaria", "setting": "neonatal murine calvaria; 14 days after exposure, scaffold release 0.4 and 0.8 μg/24 h", "value": "stimulate cartilage formation in a dose response fashion"}, {"measurement": "Bone formation rates greater than those of control rats", "setting": "intact rats; after 30 days, transdermal 5 days", "value": "more than 150%"}, {"measurement": "Increase in bone formation rates", "setting": "intact rats; dermal 5 mg/kg/day", "value": 166, "unit": "%"}, {"measurement": "Increase in bone volume, proximal tibial metaphysis", "setting": "intact rats; 1 mg/kg/day for 5 days only", "value": 17, "unit": "%"}, {"measurement": "Increase in bone volume, proximal tibial metaphysis", "setting": "intact rats; 5 mg/kg/day for 5 days only", "value": 33, "unit": "%"}, {"measurement": "Cancellous bone volume in distal femoral metaphyses by μCT vs controls", "setting": "intact rats; [6]", "value": "higher cancellous bone volume"}, {"measurement": "Trabecular thickness, number and spacing by μCT", "setting": "intact rats; [6]", "value": "increase in trabecular thickness and number, and reduced trabecular spacing"}, {"measurement": "Increase in BMD over vehicle-treated controls", "setting": "intact rats; weekly dermal administration, proximal tibiae, Piximus, end of five weeks", "value": 8, "unit": "%"}, {"measurement": "concentration at 3 h", "setting": "[3]; oral 5 mg/kg/day", "value": 10, "unit": "ng/mL"}, {"measurement": "concentration at 3 h", "setting": "[3]; topical, transdermal 0.1 and 1 mg/kg/day", "value": "2 to 3", "unit": "ng/mL"}]}
